Measurements: the supplement of paper PMC11061612

Experiments:
[1] = test system: NCI-H2052 (Mesothelioma); assay: Bliss excess, mean over the matrix (fraction); higher = more synergy
In short: (§1)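 After 24 hours at 37°C and 5% CO2 in 1536-well plates, cells in DMEM/F12 or RPMI plus 10% FBS received two-drug dose matrices for 72 hours. Viability came from CellTiter-Glo 2.0 luminescence and was scaled as inhibition, anchored at 0 by vehicle wells and at 1 by blank wells. Combination Emax is taken as the second-highest inhibition in the matrix, and Bliss excess as the observed combination effect less EA + EB − EA·EB, with EA and EB the single-agent effects.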

[2] = test system: MHH-CALL-2 (B-Lymphoblastic Leukemia); assay: as above
In short: as §1

[3] = test system: LS-123 (Colorectal Carcinoma); assay: as above
In short: as §1

[4] = test system: OVCAR-5 (Ovarian Carcinoma); assay: as above
In short: as §1

[5] = test system: KYAE-1 (Esophageal Adenocarcinoma); assay: as above
In short: as §1

[6] = test system: KS-1 (Glioblastoma); assay: combination Emax (second highest fraction inhibited in the dose matrix, 72 h); higher = more inhibition; extreme values may be limits of the assay
In short: as §1

[7] = test system: Detroit562 (Head and Neck Carcinoma); assay: as above
In short: as §1

[8] = test system: NCI-H2052 (Mesothelioma); assay: as above
In short: as §1

[9] = test system: MHH-CALL-2 (B-Lymphoblastic Leukemia); assay: as above
In short: as §1

[10] = test system: SNU-16 (Gastric Carcinoma); assay: as above
In short: as §1

[11] = test system: ALL-PO (B-Lymphoblastic Leukemia); assay: as above
In short: as §1

[12] = test system: BFTC-909 (Kidney Carcinoma); assay: as above
In short: as §1

[13] = test system: FTC-133 (Thyroid Gland Carcinoma); assay: as above
In short: as §1

[14] = test system: SNU-449 (Hepatocellular Carcinoma); assay: as above
In short: as §1

[15] = test system: KYAE-1 (Esophageal Adenocarcinoma); assay: as above
In short: as §1

[16] = test system: NUGC-4 (Gastric Carcinoma); assay: as above
In short: as §1

[17] = test system: HuCCT1 (Biliary Tract Carcinoma); assay: as above
In short: as §1

[18] = test system: HeLa (Cervical Carcinoma); assay: as above
In short: as §1

[19] = test system: BE-13 (T-Lymphoblastic Leukemia); assay: as above
In short: as §1

[20] = test system: EW-11 (Ewing's Sarcoma); assay: as above
In short: as §1
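For Bliss excess, mean over the matrix in this document: after 72 h of two-drug dosing.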

Structure (SMILES)	Bliss excess [1]	Bliss excess [2]	Bliss excess [3]	Bliss excess [4]	Bliss excess [5]	combination Emax [6]	combination Emax [7]	combination Emax [8]	combination Emax [9]	combination Emax [10]	combination Emax [11]	combination Emax [12]	combination Emax [13]	combination Emax [14]	combination Emax [15]	combination Emax [16]	combination Emax [17]	combination Emax [18]	combination Emax [19]	combination Emax [20]
CC1(C)CCC(CN2CCN(c3ccc(C(=O)NS(=O)(=O)c4ccc(NCC5CCOCC5)c([N+](=O)[O-])c4)c(Oc4cnc5[nH]ccc5c4)c3)CC2)=C(c2ccc(Cl)cc2)C1 [Venetoclax] + C1CN(CCC1(C(=O)N[C@@H](CCO)C2=CC=C(C=C2)Cl)N)C3=NC=NC4=C3C=CN4 [Capivasertib] (first compound max 1 µM, 7x7, partner max 3 µM)	-0.0269	-0.0702	-0.0134	-0.0649	-0.0582	0.303	0.346	0.329	0.106	0.189	0.669	0.554	0.358	0.222	0.407	0.121	0.24	0.22	0.379	0.711
Cc1c2c(nn1C)CSCc1cc(n(C)n1)CSc1cc(c3ccccc3c1)OCCCc1c(C(=O)O)n(C)c3c-2c(Cl)ccc13 [AZD5991] + CN(C)CCCOc1ccc(-c2ccc3ncc4c(c3c2)n(C2CCOCC2)c(=O)n4C)cn1 [AZD0156] (first compound max 1 µM, 7x7, partner max 1 µM)	-0.0027	0.0053	-0.01	-0.024	-0.0009	0.225	0.269	0.285	0.985	0.974	1	0.239	0.719	0.25	0.177	0.238	0.286	0.46	0.445	0.803
NC1(C(=O)N[C@@H](CCO)c2ccc(Cl)cc2)CCN(c2ncnc3[nH]ccc23)CC1 [Capivasertib] + CCN(CCO)CCCOc1ccc2c(Nc3cc(CC(=O)Nc4cccc(F)c4)[nH]n3)ncnc2c1 [AZD2811] (first compound max 10 µM, 7x7, partner max 1 µM)	0.0076	-0.0244	-0.0179	-0.0223	0.0023	0.547	0.892	0.427	0.532	0.663	1	0.638	0.643	0.187	0.156	0.0827	0.309	0.23	0.733	0.611
CC1(C)CCC(CN2CCN(c3ccc(C(=O)NS(=O)(=O)c4ccc(NCC5CCOCC5)c([N+](=O)[O-])c4)c(Oc4cnc5[nH]ccc5c4)c3)CC2)=C(c2ccc(Cl)cc2)C1 [Venetoclax] + COc1cc(Nc2ncc3c(n2)-c2ccc(Cl)cc2C(c2c(F)cccc2OC)=NC3)ccc1C(=O)O [Alisertib] (first compound max 1 µM, 7x7, partner max 10 µM)	-0.0169	0.165	0.0288	-0.0703	-0.119	0.635	0.754	0.425	0.733	0.955	1	0.502	0.416	0.313	0.128	0.166	0.365	0.702	0.918	0.649
CC(=O)c1c(C)c2cnc(Nc3ccc(N4CCNCC4)cn3)nc2n(C2CCCC2)c1=O [Palbociclib] + CC1(C)CCC(CN2CCN(c3ccc(C(=O)NS(=O)(=O)c4ccc(NCC5CCOCC5)c([N+](=O)[O-])c4)c(Oc4cnc5[nH]ccc5c4)c3)CC2)=C(c2ccc(Cl)cc2)C1 [Venetoclax] (first compound max 10 µM, 7x7, partner max 1 µM)	-0.0432	-0.032	-0.0324	-0.0018	-0.023	0.348	0.543	0.133	0.155	0.699	0.931	0.326	0.0919	0.272	0.132	0.194	0.309	0.0741	0.588	0.203
CC1(C)CCC(CN2CCN(c3ccc(C(=O)NS(=O)(=O)c4ccc(NCC5CCOCC5)c([N+](=O)[O-])c4)c(Oc4cnc5[nH]ccc5c4)c3)CC2)=C(c2ccc(Cl)cc2)C1 [Venetoclax] + C=CCn1c(=O)c2cnc(Nc3ccc(N4CCN(C)CC4)cc3)nc2n1-c1cccc(C(C)(C)O)n1 [AZD1775] (first compound max 1 µM, partner max 1 µM)	-0.0145	-0.0382	-0.0165	0.0332	-0.033	0.504	0.545	0.249	0.681	0.912	1	0.667	0.86	0.239	0.706	0.312	0.69	0.573	1	0.715
Cc1c2c(nn1C)CSCc1cc(n(C)n1)CSc1cc(c3ccccc3c1)OCCCc1c(C(=O)O)n(C)c3c-2c(Cl)ccc13 [AZD5991] + CC1(C)CCC(CN2CCN(c3ccc(C(=O)NS(=O)(=O)c4ccc(NCC5CCOCC5)c([N+](=O)[O-])c4)c(Oc4cnc5[nH]ccc5c4)c3)CC2)=C(c2ccc(Cl)cc2)C1 [Venetoclax] (first compound max 1 µM, 7x7, partner max 1 µM)	0.0269	0.0043	-0.026	-0.0365	0.0049	0.146	0.156	0.229	0.983	0.994	1	0.239	0.677	0.23	0.225	0.178	0.203	0.794	0.916	0.975
COc1cccc(OCCCN)c1-c1cc(Nc2cnc(C#N)cn2)n[nH]1 [Prexasertib] + CCc1c2c(nc3ccc(O)cc13)-c1cc3c(c(=O)n1C2)COC(=O)[C@]3(O)CC [SN-38] (first compound max 1 µM, 7x7, partner max 0.3 µM)	-0.0138	0.0227	0.0186	-0.0162	0.102	0.536	1	0.853	1	1	0.993	0.996	1	0.531	0.79	0.484	0.875	0.865	1	0.749
COc1nnc2ccc(N3CCC(c4ccc(OCCN5CCN(C)C(=O)[C@H]5C)cc4)CC3)nn12 [AZD5153] + C[C@@H]1COCCN1C2=NC(=NC(=C2)C3(CC3)[S@](=N)(=O)C)C4=C5C=CNC5=NC=C4 [AZD6738] (first compound max 1 µM, 7x7, partner max 10 µM)	-0.0497	-0.0397	0.0091	-0.0276	-0.003	0.69	0.919	0.209	0.932	0.98	0.987	0.876	0.782	0.166	0.263	0.652	0.666	0.589	0.985	0.692
Cn1cnc2c(F)c(Nc3ccc(Br)cc3Cl)c(C(=O)NOCCO)cc21 [Selumetinib] + C[C@@H]1COCCN1C2=NC(=NC(=C2)C3(CC3)[S@](=N)(=O)C)C4=C5C=CNC5=NC=C4 [AZD6738] (first compound max 10 µM, 7x7, partner max 10 µM)	0.0119	0.0085	0.0709	-0.0236	-0.0243	0.334	0.88	0.395	0.951	0.966	0.96	0.797	0.724	0.111	0.0615	0.607	0.703	0.486	0.784	0.592
COc1nnc2ccc(N3CCC(c4ccc(OCCN5CCN(C)C(=O)[C@H]5C)cc4)CC3)nn12 [AZD5153] + Cc1c2c(nn1C)CSCc1cc(n(C)n1)CSc1cc(c3ccccc3c1)OCCCc1c(C(=O)O)n(C)c3c-2c(Cl)ccc13 [AZD5991] (first compound max 1 µM, 7x7, partner max 1 µM)	-0.018	0.002	-0.0249	-0.043	-0.0291	0.629	0.877	0.328	1	1	1	0.535	0.615	0.292	0.0912	0.652	0.495	0.799	0.998	0.945
COc1nnc2ccc(N3CCC(c4ccc(OCCN5CCN(C)C(=O)[C@H]5C)cc4)CC3)nn12 [AZD5153] + C=CCn1c(=O)c2cnc(Nc3ccc(N4CCN(C)CC4)cc3)nc2n1-c1cccc(C(C)(C)O)n1 [AZD1775] (first compound max 1 µM, partner max 1 µM)	-0.0882	-0.0843	-0.0445	-0.0591	-0.0142	0.686	0.823	0.407	0.742	0.871	0.995	0.702	0.837	0.249	0.0798	0.641	0.767	0.54	1	0.572
